Test results published in patent US4508663A, “Process for preparing thiosulfenamide derivatives of N-phosphonomethylglycinonitriles” (Monsanto Company, priority 1983, dated 1985).

Tests used:
Test in all cases: post-emergence herbicidal activity, greenhouse
Format in all cases: in vivo
Sugar Beet = conditions: Table II, 2 WAT
Text: (§1) A good grade of top soil is placed in aluminum pans having holes in the bottom and compacted to a depth of 0.95 to 1.27 cm. from the top of the pan. A predetermined number of seeds of each of several dicotyledonous and monocotyledonous annual plant species and/or vegetative propagules for the perennial plant species are placed on the soil and pressed into the soil surface. The seeds and/or vegetative propagules are covered with soil and leveled. The pans are then placed on a sand bench in the greenhouse and watered from below as needed. After the plants reach the desired age (two to three weeks), each pan except for the control pans is removed individually to a spraying chamber and sprayed by means of an atomizer operating at a positive air pressure of approximately 1.46 kg/cm^2 absolute. The atomizer contains 6 ml. of a solution or suspension of the chemical. In that 6 ml., is an amount of a cyclohexanone emulsifying agent mixture to give a spray solution or suspension which contains about 0.4% by weight of the emulsifier. The spray solution or suspension contains a sufficient amount of the candidate chemical in order to give application rates corresponding to those set forth in the tables. The spray solution is prepared by taking an aliquot of a 1.0% by weight stock solution or suspension of the candidate chemical in an organic solvent such as acetone or tetrahydrofuran or in water. The emulsifying agent employed is a mixture comprising 35 weight percent butylamine dodecylbenzene sulfonate and 65 weight percent of a tall oil ethylene oxide condensate having about 11 moles of ethylene oxide per mole of tall oil. The pans are returned to the greenhouse and watered as before and the injury to the plants as compared to the control is observed at approximately two and four weeks as indicated in the tables under WAT and the results recorded. In some instances, the two-week observations are omitted.
(§2) The post-emergence herbicidal activity index used in Table I is as follows: […]

Velvetleaf = system: Velvetleaf
Text: as §1, §2

Panicum Spp = conditions: Table II, 2 WAT
Text: as §1, §2

Cocklebur = system: Cocklebur
Text: as §1, §2

Quackgrass = conditions: Table I
Text: as §1, §2

Sorghum = conditions: Table II, 2 WAT
Text: as §1, §2

Crabgrass = conditions: Table II, 2 WAT
Text: as §1, §2

Downy Brome = system: Downy Brome
Text: as §1, §2

Lambsquarters = system: Lambsquarters
Text: as §1, §2

Johnsongrass = conditions: Table I
Text: as §1, §2

Morningglory = system: Morningglory
Text: as §1, §2

Rice = conditions: Table II, 2 WAT
Text: as §1, §2

Yellow Nutsedge = conditions: Table I
Text: as §1, §2

Hemp Sesbania = conditions: Table II, 2 WAT
Text: as §1, §2

Soybean = conditions: Table II, 2 WAT
Text: as §1, §2

Smartweed = system: Smartweed
Text: as §1, §2

Barnyardgrass = system: Barnyardgrass
Text: as §1, §2

Wild Buckwheat = conditions: Table II, 2 WAT
Text: as §1, §2

Wheat = conditions: Table II, 2 WAT
Text: as §1, §2

N#CCN(CP(=O)(Oc1ccccc1)Oc1ccccc1)SSc1ccc2ccccc2c1 [IX, Phosphonic acid, [[(cyanomethyl)(2-naphthalenyldithio)amino]methyl]-, diphenyl ester]
post-emergence herbicidal activity index (Sugar Beet; 0.28 kg/h): 0 (0-24% control) | post-emergence herbicidal activity index (Sugar Beet; 1.12 kg/h): 0 (0-24% control) | post-emergence herbicidal activity index (Sugar Beet; 5.6 kg/h): 0 (0-24% control) | post-emergence herbicidal activity index (Velvetleaf; Table I, 2 WAT, 5.6 kg/h): 1 (25-49% control) | post-emergence herbicidal activity index (Velvetleaf; Table I, 4 WAT, 11.2 kg/h): 1 (25-49% control) | post-emergence herbicidal activity index (Velvetleaf; Table II, 2 WAT, 0.28 kg/h): 0 (0-24% control) | post-emergence herbicidal activity index (Velvetleaf; Table II, 2 WAT, 1.12 kg/h): 0 (0-24% control) | post-emergence herbicidal activity index (Velvetleaf; Table II, 2 WAT, 5.6 kg/h): 0 (0-24% control) | post-emergence herbicidal activity index (Panicum Spp; 0.28 kg/h): 0 (0-24% control) | post-emergence herbicidal activity index (Panicum Spp; 1.12 kg/h): 0 (0-24% control) | post-emergence herbicidal activity index (Panicum Spp; 5.6 kg/h): 0 (0-24% control) | post-emergence herbicidal activity index (Cocklebur; Table I, 2 WAT, 5.6 kg/h): 0 (0-24% control) | post-emergence herbicidal activity index (Cocklebur; Table I, 4 WAT, 11.2 kg/h): 1 (25-49% control) | post-emergence herbicidal activity index (Cocklebur; Table II, 2 WAT, 0.28 kg/h): 0 (0-24% control) | post-emergence herbicidal activity index (Cocklebur; Table II, 2 WAT, 1.12 kg/h): 0 (0-24% control) | post-emergence herbicidal activity index (Cocklebur; Table II, 2 WAT, 5.6 kg/h): 1 (25-49% control) | post-emergence herbicidal activity index (Quackgrass; 2 WAT, 5.6 kg/h): 0 (0-24% control) | post-emergence herbicidal activity index (Quackgrass; 4 WAT, 11.2 kg/h): 1 (25-49% control) | post-emergence herbicidal activity index (Sorghum; 0.28 kg/h): 0 (0-24% control) | post-emergence herbicidal activity index (Sorghum; 1.12 kg/h): 0 (0-24% control) | post-emergence herbicidal activity index (Sorghum; 5.6 kg/h): 1 (25-49% control) | post-emergence herbicidal activity index (Crabgrass; 0.28 kg/h): 0 (0-24% control) | post-emergence herbicidal activity index (Crabgrass; 1.12 kg/h): 0 (0-24% control) | post-emergence herbicidal activity index (Crabgrass; 5.6 kg/h): 2 (50-74% control) | post-emergence herbicidal activity index (Downy Brome; Table I, 2 WAT, 5.6 kg/h): 0 (0-24% control) | post-emergence herbicidal activity index (Downy Brome; Table I, 4 WAT, 11.2 kg/h): 0 (0-24% control) | post-emergence herbicidal activity index (Downy Brome; Table II, 2 WAT, 0.28 kg/h): 0 (0-24% control) | post-emergence herbicidal activity index (Downy Brome; Table II, 2 WAT, 1.12 kg/h): 0 (0-24% control) | post-emergence herbicidal activity index (Downy Brome; Table II, 2 WAT, 5.6 kg/h): 0 (0-24% control) | post-emergence herbicidal activity index (Lambsquarters; Table I, 2 WAT, 5.6 kg/h): 1 (25-49% control) | post-emergence herbicidal activity index (Lambsquarters; Table I, 4 WAT, 11.2 kg/h): 3 (75-99% control) | post-emergence herbicidal activity index (Lambsquarters; Table II, 2 WAT, 0.28 kg/h): 0 (0-24% control) | post-emergence herbicidal activity index (Lambsquarters; Table II, 2 WAT, 1.12 kg/h): 0 (0-24% control) | post-emergence herbicidal activity index (Lambsquarters; Table II, 2 WAT, 5.6 kg/h): 3 (75-99% control) | post-emergence herbicidal activity index (Johnsongrass; 2 WAT, 5.6 kg/h): 1 (25-49% control) | post-emergence herbicidal activity index (Johnsongrass; 4 WAT, 11.2 kg/h): 1 (25-49% control) | post-emergence herbicidal activity index (Morningglory; Table I, 2 WAT, 5.6 kg/h): 0 (0-24% control) | post-emergence herbicidal activity index (Morningglory; Table I, 4 WAT, 11.2 kg/h): 0 (0-24% control) | post-emergence herbicidal activity index (Morningglory; Table II, 2 WAT, 0.28 kg/h): 0 (0-24% control) | post-emergence herbicidal activity index (Morningglory; Table II, 2 WAT, 1.12 kg/h): 0 (0-24% control) | post-emergence herbicidal activity index (Morningglory; Table II, 2 WAT, 5.6 kg/h): 1 (25-49% control) | post-emergence herbicidal activity index (Rice; 0.28 kg/h): 0 (0-24% control) | post-emergence herbicidal activity index (Rice; 1.12 kg/h): 0 (0-24% control) | post-emergence herbicidal activity index (Rice; 5.6 kg/h): 0 (0-24% control) | post-emergence herbicidal activity index (Yellow Nutsedge; 2 WAT, 5.6 kg/h): 0 (0-24% control) | post-emergence herbicidal activity index (Yellow Nutsedge; 4 WAT, 11.2 kg/h): 0 (0-24% control) | post-emergence herbicidal activity index (Hemp Sesbania; 0.28 kg/h): 0 (0-24% control) | post-emergence herbicidal activity index (Hemp Sesbania; 1.12 kg/h): 0 (0-24% control) | post-emergence herbicidal activity index (Hemp Sesbania; 5.6 kg/h): 1 (25-49% control) | post-emergence herbicidal activity index (Soybean; 0.28 kg/h): 0 (0-24% control) | post-emergence herbicidal activity index (Soybean; 1.12 kg/h): 0 (0-24% control) | post-emergence herbicidal activity index (Soybean; 5.6 kg/h): 0 (0-24% control) | post-emergence herbicidal activity index (Smartweed; Table I, 2 WAT, 5.6 kg/h): 0 (0-24% control) | post-emergence herbicidal activity index (Smartweed; Table I, 4 WAT, 11.2 kg/h): 3 (75-99% control) | post-emergence herbicidal activity index (Smartweed; Table II, 2 WAT, 0.28 kg/h): 0 (0-24% control) | post-emergence herbicidal activity index (Smartweed; Table II, 2 WAT, 1.12 kg/h): 0 (0-24% control) | post-emergence herbicidal activity index (Smartweed; Table II, 2 WAT, 5.6 kg/h): 1 (25-49% control) | post-emergence herbicidal activity index (Barnyardgrass; Table I, 2 WAT, 5.6 kg/h): 0 (0-24% control) | post-emergence herbicidal activity index (Barnyardgrass; Table I, 4 WAT, 11.2 kg/h): 1 (25-49% control) | post-emergence herbicidal activity index (Barnyardgrass; Table II, 2 WAT, 0.28 kg/h): 0 (0-24% control) | post-emergence herbicidal activity index (Barnyardgrass; Table II, 2 WAT, 1.12 kg/h): 0 (0-24% control) | post-emergence herbicidal activity index (Barnyardgrass; Table II, 2 WAT, 5.6 kg/h): 1 (25-49% control) | post-emergence herbicidal activity index (Wild Buckwheat; 0.28 kg/h): 0 (0-24% control) | post-emergence herbicidal activity index (Wild Buckwheat; 1.12 kg/h): 0 (0-24% control) | post-emergence herbicidal activity index (Wild Buckwheat; 5.6 kg/h): 1 (25-49% control) | post-emergence herbicidal activity index (Wheat; 0.28 kg/h): 0 (0-24% control) | post-emergence herbicidal activity index (Wheat; 1.12 kg/h): 0 (0-24% control) | post-emergence herbicidal activity index (Wheat; 5.6 kg/h): 1 (25-49% control)
